Experimental data: patent US9713613B2, “Methods and compositions for the treatment of cancer and related hyperproliferative disorders” (priority 2007, dated 2017)

Test system: DU145 cells
Test: Oligonucleotide microarray analysis (Affymetrix) of treated DU145 cells
Assay type: cell-based, human
Design: dose or concentration left out as unconfirmed
Details: DU145, 6 hrs
Procedure: Gene expression profile comparison of the drug-treated and untreated cells might reveal specific molecular pathways affected by fatostatin A. DU145 cells were treated with fatostatin A or DMSO alone, and extracted mRNA samples were analyzed by Affimetrix DNA microarrays mapping 33,000 genes (Table 1).
(§1) DU145 prostate cancer cells were treated with […] of fatostatin A or DMSO alone in the presence of 1 μg/mL of IGF1 for 6 hrs in a serum free medium, total RNA was extracted in a TRI reagent (Molecular Research Center) and further isolated by RNeasy Mini Kit (Qiagen). Purified mRNA was analyzed in Baylor College of Medicine Microarray Core Facility by Affymetrix Human Genome U133 Plus 2.0 Array consisting of almost 45,000 probe sets representing more than 39,000 transcripts derived from approximately 33,000 well-substantiated human genes (Affymetrix, Inc.).
As described herein, fatostatin inhibits the insulin-induced adipogenesis of 3T3-L1 cells and the serum-independent growth of DU145 cells (Choi et al., 2003). Gene expression profiles of drug-treated and untreated cells were compared to gain information about specific molecular pathways affected by fatostatin. DU145 cells were treated with fatostatin or DMSO alone, and the extracted mRNA samples were analyzed by Affymetrix DNA microarrays mapping 33,000 genes. Of those genes (all of which are available at the National Center for Biotechnology Information's GenBank database on the world wide web), transcription levels of 63 genes decreased at least 35% in response to fatostatin treatment (Table 5). Thirty-four of the affected genes were directly associated with fat or sterol synthesis, such as genes encoding biosynthetic enzymes, and 18 of the affected genes have been reported to be controlled by SREBPs (Horton et al., 2003). Downregulation of the affected SREBP-responsive genes was confirmed by RT-PCR experiments.
as §1, with “Oligonucleotide microarray analysis. DU145” for “DU145”, “fatostatin” for “fatostatin A”

SMILES: CCCc1cc(-c2nc(-c3ccc(C)cc3)cs2)ccn1 [Compound 1, 2-propyl-4-(4-p-tolylthiazol-2-yl)pyridine]
- transcription level (fold), famesyl-diphosphate farnesyltransferase (:AA872727): 0.5359
- transcription level (fold), mevalonate (diphospho) decarboxylase (A1189359): 0.3299
- transcription level (fold), stearoyl-CoA desaturase (delta-9-desaturase) (AB032261): 0.5743
- transcription level (fold), Homo sapiens putative sterol reductanse SR-1 (TM7SF2) (AF096304): 0.6156
- transcription level (fold), squalene epoxidase (AF098865): 0.5
- Decreased fold, Homo sapiens androgen-regulated short-chain dehydrogenaseneductase 1 (AF167438): 0.6598
- transcription level (fold), Homo sapiens androgen-regulated short-chain dehydrogenasereductase 1 (ARSDR1) (AF167438): 0.6598
- transcription level (fold), Cullin 4B (AI670819): 0.7071
- transcription level (fold), low density lipoprotein receptor (familial hypercholesterolemia) (AI861942): 0.5743
- transcription level (fold), ATP citrate lyase (AI971281): 0.5743
- Decreased fold, acetyl-CoA synthetase (AK000162): 0.5359
- transcription level (fold), acetyl-CoA synthetase (AK000162): 0.5359
- transcription level (fold), malic enzyme 1, NADP(+)-dependent, cytosolic (AL049699): 0.7071
- transcription level (fold), 3-hydroxy-3-methylglutaryl-Coenzyme A reductase (AL518627): 0.5
- transcription level (fold), human glucose transporter pseudogene (AL565516): 0.7071
- transcription level (fold), Tubulin, beta 4 (AL565749): 0.6598
- transcription level (fold), tubulin, alpha 1 (testis specific) (AL575074): 0.4665
- transcription level (fold), cytochrome P450, subfamily I (dioxin-inducible), polypeptide 1 (AU144855): 0.5
- transcription level (fold), lanosterol synthase (2,3-oxidosqualene-lanosterol cyclase) (AW084510): 0.5743
- transcription level (fold), cytochrome b5 outer mitochondrial membrane precursor (AW235051): 0.5743
- transcription level (fold), acetyl-Coenzyme A carboxylase alpha (B3855983): 0.5743
- transcription level (fold), NAD(P) dependent steroid dehydrogenase-like; H105e3 (BC000245): 0.4665
- transcription level (fold), acetyl-Coenzyme A acetyltransferase 2 (acetoacetyl Coenzyme A thiolase) (BC000408): 0.5743
- Decreased fold, acetyl-Coenzyme A acetyltransferase 2 (BC000408.1): 0.5743
- transcription level (fold), Homo sapiens, similar to tubulin, beta4 (BC002654): 0.6598
- transcription level (fold), isopentenyl-diphosphate delta isomerase (BC005247): 0.4665
- transcription level (fold), Homo sapiens, tubulin, beta5 (BC005838): 0.6598
- transcription level (fold), insulin induced gene 1 (BE300521): 0.3299
- transcription level (fold), dihydrolipoamide S-acetyltransferase (BF978872): 0.6598
- transcription level (fold), DNAJ (Hsp40) homolog, subfamily B, member 4 (BG252490): 0.7071
- Decreased fold, lanosterol synthase (D63807.1): 0.6156
- transcription level (fold), lanosterol synthase (2,3-oxidosqualene-lanosterol cyclase) (D63807.1): 0.6156
- transcription level (fold), lipin 1 (D80010.1): 0.5
- Decreased fold, sterol-05-desaturase (D85181.1): 0.5
- transcription level (fold), sterol-C5-desaturase (fungal ERG3, delta-5-desaturase)-like (D85181.1): 0.5
- transcription level (fold), Fatty-acid-Coenzyme A ligase, long-chain 3 (D89053.1): 0.7071
- transcription level (fold), prostaglandin E2 receptor (L32662.1): 0.5
- Decreased fold, 3-hydroxy-3-methylglutaryl-Coenzyme A reductase (HMG CoA R) (NM000859.1): 0.5
- Decreased fold, 3-hydroxy-3-methylglutaryl-Coenzyme A synthase 1 (HMG CoA S) (NM 0002130.1): 0.3536
- Decreased fold, mevalonate decarboxylase (MVD) (NM002461.1): 0.3299
- Decreased fold, squalene epoxidase (NM 003129.2): 0.5
- Decreased fold, Insulin induced gene 1 (INSIG1) (NM 005542.1): 0.3299
- Decreased fold, fatty acid desaturase 1 (NM005931.1): 0.6598
- Decreased fold, emopamil-bindingprotein (sterol isomerase) (NM006579.1): 0.6156
- Decreased fold, dihydrolipoamide S-acetyltransferase (NM0019312): 0.6598
- transcription level (fold), cytochrome P450, subfamily I (dioxin-inducible), polypeptide 1 (NM_00010): 0.3299
- transcription level (fold), mevalonate kinase (mevalonic aciduria) (NM_00043): 0.5
- transcription level (fold), nuclear receptor subfamily O, group B, member 1 (NM_00047): 0.5359
- transcription level (fold), low density lipoprotein receptor (familial hypercholesterolemia) (NM_00052): 0.6156
- transcription level (fold), cytochrome P450, 51 (lanosterol 14-alpha-demthylase) (NM_00078): 0.5359
- transcription level (fold), 3-hydroxy-3-methylglutaryl-Coenzyme A reductase (NM_00085): 0.4665
- transcription level (fold), ATP citrate lyase (NM_00109): 0.7071
- transcription level (fold), dehydrocholesterol reductase (NM_00136): 0.5743
- transcription level (fold), fibroblast growth factor 2 (basic) (NM_00200, Hs.284244): 0.5
- transcription level (fold), farnesyl diphosphate synthase (NM_00200, Hs.77393): 0.6598
- transcription level (fold), 3-hydroxy-3-methylglutaryl-Coenzyme a synthase 1 (soluble) (NM_00213): 0.3536
- transcription level (fold), meningioma (disrupted in balanced translocation) 1 (NM_00243): 0.6156
- transcription level (fold), Homo sapiens periplakin (PPL) (NM_00270): 0.6156
- transcription level (fold), H2B histone family, member Q (NM_00352): 0.5
- transcription level (fold), basic heliz-loop-helix domain containing, class B, 2 (NM_00367): 0.5743
- transcription level (fold), tumor necrosis factor (ligand) superfamily, member9 (NM_00381): 0.5743
- Decreased fold, mevalonate kinase (MVK) (NM_000431.1): 0.5
- Decreased fold, low density lipoprotein receptor (LDLR) (NM_000527.2): 0.5743
- transcription level (fold), UDP-N-acetylglucosamine-2-epimerase-N-acetrylmannosamine kinase (NM_00547): 0.5743
- transcription level (fold), Isocitrate dehydrogenase 1 (NADP+), soluble (NM_00589): 0.7071
- transcription level (fold), fatty acid desaturase 1 (NM_00593): 0.6598
- transcription level (fold), lipase, endothelial (NM_00603): 0.5359
- transcription level (fold), IGF-II mRNA-binding protein 3 (NM_00654): 0.4665
- transcription level (fold), emopamil-binding protein (sterol isomerase) (NM_00657): 0.6156
- transcription level (fold), serum-inducible kinase (NM_00662): 0.5743
- Decreased fold, acetyl-Coenzyme A carboxylase alpha (NM_000664.1): 0.5743
- Decreased fold, ATP citrate lyase (NM_001096.1): 0.5743
- transcription level (fold), hydroxysteroid (17-beta) dehydrogenase 7 (NM_01637): 0.4665
- Decreased fold, farnesyl pyrophosphate syntlietase (NM_002004.1): 0.6598
- Decreased fold, fatty-acid-Coenzyme A ligase long chain 3 (NM_004457.2): 0.7071
- Decreased fold, famesyl-diphosphate famesyltransferase 1 (NM_004462.1): 0.5359
- Decreased fold, stearoyl-CoA desaturase (SCD) (NM_005063.1): 0.5743
- transcription level (fold), seladin-1 (NM_014676): 0.6598
- Decreased fold, hydroxysteroid (17-beta) dehydrogenase 7 (NM_016371.1): 0.4665
- Decreased fold, fatty-acid-Coenzyme A ligase long chain 4 (NM_022977.1): 0.7071
- transcription level (fold), low density lipoprotein receptor (familial hypercholesterolemia) (S70123.1): 0.7071
- transcription level (fold), ATP citrate lyase (U18197.1): 0.5743
- transcription level (fold), cytochrome P450, 51 (lanosterol 14-alpha-demethylase) (U40053): 0.4665
- transcription level (fold), pinin, desmosome associated protein (U59479.1): 0.5359
